# According to patent publication US9464084B2, “P2X7 modulators” (Janssen Pharmaceutica NV, priority 2013, dated 2016):
# pIC50, pKi: −log10 of the molar value.
# Key:
# P2X7 [1] = target: T1, P2X7 (Homo sapiens (Human), UniProt Q99572); experiment: P2X7 antagonism in human PBMCs (LPS + Bz-ATP induced IL-1β release, ELISA); format: cell-based; settings: LPS 30 ng/ml, Bz-ATP 0.5 mM; for PBMC 10 μM (% control): compound 10 μM; for PBMC 1 μM (% control): compound 1 μM;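 for all read-outs here: PBMCs from donor human blood, with a further 1.5 h incubation of the cells in the assay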
# P2X7 [2] = target: T1, P2X7; experiment: Radioligand binding, tritiated A-804598, human P2X7-1321N1 cell membranes; settings: 1 hour at 4° C.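 Note: ki obtained from the binding IC50 after correction for tracer concentration and tracer affinity.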
# Method: On the day of the experiment, cell membrane preparations were made according to standard published methods. […] The assay was terminated by filtration (GF/B filters pre-soaked with 0.3% PEI) and washed with washing buffer (Tris-HCl 50 mM). The IC50 generated in the binding assay was corrected for tracer concentration and affinity of the tracer to derive at the affinity (Ki) of the test compounds.
# P2X7 [3] = target: T1, P2X7; experiment: Ca2+ flux (FLIPR) in 1321N1 cells expressing recombinant human P2X7 channel; format: cell-based; settings: 250 μM BzATP;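 note: Calcium-4 dye-loaded cells exposed to compound for 30 min before agonist addition, fluorescence change read 180 s after agonist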
# rat P2X7 = rat P2X7 (Rattus norvegicus (Rat), UniProt Q64663); experiment: Ca2+ flux (FLIPR) in 1321N1 cells expressing recombinant rat P2X7 channel; format: cell-based; settings: 250 μM BzATP;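 note: Calcium-4 dye fluorescence change read 180 s after agonist addition, following 30 min cell preincubation with test compound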
# Sequence of rat P2X7 (Q64663 whole entry): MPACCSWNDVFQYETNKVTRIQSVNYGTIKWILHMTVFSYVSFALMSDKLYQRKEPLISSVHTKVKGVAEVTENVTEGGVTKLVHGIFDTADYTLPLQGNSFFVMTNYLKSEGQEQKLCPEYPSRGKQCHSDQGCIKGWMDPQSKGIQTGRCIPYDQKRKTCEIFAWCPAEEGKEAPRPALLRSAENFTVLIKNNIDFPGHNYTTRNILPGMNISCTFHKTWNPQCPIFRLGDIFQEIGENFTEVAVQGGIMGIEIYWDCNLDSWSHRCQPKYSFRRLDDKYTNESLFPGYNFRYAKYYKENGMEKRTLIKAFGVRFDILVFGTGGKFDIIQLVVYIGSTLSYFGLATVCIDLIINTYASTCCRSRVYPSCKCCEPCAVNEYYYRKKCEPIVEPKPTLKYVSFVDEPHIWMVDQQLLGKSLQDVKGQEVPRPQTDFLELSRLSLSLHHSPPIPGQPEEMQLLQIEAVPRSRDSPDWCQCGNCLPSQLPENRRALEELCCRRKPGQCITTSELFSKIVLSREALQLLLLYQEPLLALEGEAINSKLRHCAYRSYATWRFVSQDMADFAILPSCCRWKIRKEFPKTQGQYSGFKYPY
# T1 sequence (Q99572 whole entry): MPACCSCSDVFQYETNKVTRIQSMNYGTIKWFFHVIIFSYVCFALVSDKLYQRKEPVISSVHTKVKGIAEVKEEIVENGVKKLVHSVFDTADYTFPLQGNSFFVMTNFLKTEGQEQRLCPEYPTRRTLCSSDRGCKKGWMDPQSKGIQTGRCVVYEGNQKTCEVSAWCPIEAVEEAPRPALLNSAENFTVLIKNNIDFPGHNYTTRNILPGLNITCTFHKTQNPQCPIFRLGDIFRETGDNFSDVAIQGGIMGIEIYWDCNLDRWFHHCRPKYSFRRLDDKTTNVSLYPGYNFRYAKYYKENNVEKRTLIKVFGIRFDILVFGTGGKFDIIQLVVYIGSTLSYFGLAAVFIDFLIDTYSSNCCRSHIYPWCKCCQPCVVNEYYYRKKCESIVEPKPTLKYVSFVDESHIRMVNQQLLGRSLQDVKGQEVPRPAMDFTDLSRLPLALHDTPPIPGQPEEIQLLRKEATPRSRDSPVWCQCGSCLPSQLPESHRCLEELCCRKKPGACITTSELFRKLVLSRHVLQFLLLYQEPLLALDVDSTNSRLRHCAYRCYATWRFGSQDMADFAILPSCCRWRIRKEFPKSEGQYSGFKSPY
PBMC 10 μM (% control) (P2X7 [1]),pKi (P2X7 [2]),pIC50 (P2X7 [3]),PBMC 1 μM (% control) (P2X7 [1]),pIC50 (rat P2X7),SMILES
33.8 % control,8.00,8.70,,,"C[C@H]1c2nnn(-c3ccccn3)c2CCN1C(=O)c1ccc(F)c(Cl)c1Cl (single isomer, unassigned) [Example 142, (S*)-(2,3-Dichloro-4-fluorophenyl)(4-methyl-1-(pyridin-2-yl)-6,7-dihydro-1H-[1,2,3]triazolo[4,5-c]pyridin-5(4H)-yl)methanone]"
1.3 % control,6.20,6.74,,,"C[C@@H]1Cc2c(nnn2-c2cc(F)ccn2)CN1C(=O)c1cccc(C(F)(F)F)c1Cl (single isomer, unassigned) [Example 198, (6R*)-5-{[2-Chloro-3-(trifluoromethyl)phenyl]carbonyl}-1-(4-fluoropyridin-2-yl)-6-methyl-4,5,6,7-tetrahydro-1H-[1,2,3]triazolo[4,5-c]pyridine]"
0.0 % control,7.40,8.07,,,"C[C@H]1Cc2c(nnn2-c2cc(F)ccn2)CN1C(=O)c1cccc(C(F)(F)F)c1Cl (single isomer, unassigned) [Example 199, (6S*)-5-{[2-Chloro-3-(trifluoromethyl)phenyl]carbonyl}-1-(4-fluoropyridin-2-yl)-6-methyl-4,5,6,7-tetrahydro-1H-[1,2,3]triazolo[4,5-c]pyridine]"
6.1 % control,8.60,,,,"C[C@H]1Cc2c(nnn2-c2ncc(F)cn2)CN1C(=O)c1ccc(Cl)c(F)c1Cl (single isomer, unassigned) [Example 218, (6S*)-5-[(2,4-Dichloro-3-fluorophenyl)carbonyl]-1-(5-fluoropyrimidin-2-yl)-6-methyl-4,5,6,7-tetrahydro-1H-[1,2,3]triazolo[4,5-c]pyridine]"
,7.12,8.21,11.5 % control,,"O=C(c1cccc(C(F)(F)F)c1Cl)N1CCc2c(ncn2-c2ccccn2)C1 [Example 1, (2-Chloro-3-(trifluoromethyl)phenyl)(1-(pyridin-2-yl)-6,7-dihydro-1H-imidazo[4,5-c]pyridin-5(4H)-yl)methanone]"
,7.37,8.03,14.3 % control,,"O=C(c1cccc(C(F)(F)F)c1Cl)N1CCc2c(ncn2-c2cnccn2)C1 [Example 6, (2-Chloro-3-(trifluoromethyl)phenyl)(1-(pyrazin-2-yl)-6,7-dihydro-1H-imidazo[4,5-c]pyridin-5(4H)-yl)methanone]"
,6.80,7.06,9.1 % control,,"CCC1c2ncn(-c3cnccn3)c2CCN1C(=O)c1cccc(C(F)(F)F)c1Cl (stereo not shown) [Example 15, (2-Chloro-3-(trifluoromethyl)phenyl)(4-ethyl-1-(pyrazin-2-yl)-6,7-dihydro-1H-imidazo[4,5-c]pyridin-5(4H)-yl)methanone]"
1.6 % control,6.90,7.11,,,"CC1c2ncn(-c3ncccc3F)c2CCN1C(=O)c1cccc(C(F)(F)F)c1Cl (stereo not shown) [Example 21, (2-Chloro-3-(trifluoromethyl)phenyl)(1-(3-fluoropyridin-2-yl)-4-methyl-6,7-dihydro-1H-imidazo[4,5-c]pyridin-5(4H)-yl)methanone]"
46.7 % control,6.10,6.14,,,"O=C(c1cccc(C(F)(F)F)c1F)N1CCc2c(nc(C(F)(F)F)n2-c2ccccc2)C1 [Example 57, 5-{[2-Fluoro-3-(trifluoromethyl)phenyl]carbonyl}-1-phenyl-2-(trifluoromethyl)-4,5,6,7-tetrahydro-1H-imidazo[4,5-c]pyridine]"
,6.40,,31.7 % control,8.20,"O=C(c1cccc(C(F)(F)F)c1Cl)N1CCc2c(nnn2-c2cnccn2)C1c1ccccc1 (stereo not shown) [Example 77, 5-{[2-Chloro-3-(trifluoromethyl)phenyl]carbonyl}-4-phenyl-1-pyrazin-2-yl-4,5,6,7-tetrahydro-1H-[1,2,3]triazolo[4,5-c]pyridine]"
,7.00,,1.1 % control,6.10,"Cn1nc(-c2cccnc2)c2c1CN(C(=O)c1cccc(C(F)(F)F)c1Cl)CC2 [Example 108, 6-{[2-Chloro-3-(trifluoromethyl)phenyl]carbonyl}-1-methyl-3-pyridin-3-yl-4,5,6,7-tetrahydro-1H-pyrazolo[3,4-c]pyridine]"
0.6 % control,7.90,,,,"CC1Cc2c(nnn2-c2ncc(F)cn2)CN1C(=O)c1ccc(Cl)c(F)c1Cl (stereo not shown) [Example 216, 5-[(2,4-Dichloro-3-fluorophenyl)carbonyl]-1-(5-fluoropyrimidin-2-yl)-6-methyl-4,5,6,7-tetrahydro-1H-[1,2,3]triazolo[4,5-c]pyridine]"
2.2 % control,,< 5.00,,4.97,"C[C@H]1Cc2c(nnn2-c2ncc(F)cn2)CN1C(=O)c1cc(F)cc(C(F)(F)F)c1 [Example 307, (S)-(3-fluoro-5-(trifluoromethyl)phenyl)(1-(5-fluoropyrimidin-2-yl)-6-methyl-6,7-dihydro-1H-[1,2,3]triazolo[4,5-c]pyridin-5(4H)-yl)methanone]"
22.9 % control,,< 5.00,,< 5.00,"CC1c2[nH]nc(C(F)(F)F)c2CCN1C(=O)c1cccc(C(F)(F)F)c1Cl (stereo not shown) [Example 308, (2-chloro-3-(trifluoromethyl)phenyl)(7-methyl-3-(trifluoromethyl)-4,5-dihydro-1H-pyrazolo[3,4-c]pyridin-6(7H)-yl)methanone]"
18.7 % control,,5.55,,< 5.00,"O=C(c1cccc(C(F)(F)F)c1F)N1CCc2c(ncn2-c2ccc(F)cn2)C1 [Example 314, (2-fluoro-3-(trifluoromethyl)phenyl)(1-(5-fluoropyridin-2-yl)-6,7-dihydro-1H-imidazo[4,5-c]pyridin-5(4H)-yl)methanone]"
,,< 5.00,93.1 % control,< 5.00,"Cn1nc2c(c1-c1ccncc1)CCN(C(=O)c1cccc(C(F)(F)F)c1Cl)C2 [Example 327, (2-chloro-3-(trifluoromethyl)phenyl)(2-methyl-3-(pyridin-4-yl)-4,5-dihydro-2H-pyrazolo[3,4-c]pyridin-6(7H)-yl)methanone]"
,,< 5.00,88.0 % control,< 5.00,"Cn1nc2c(c1-c1ccncc1)CCN(C(=O)c1cccc(Cl)c1Cl)C2 [Example 328, (2,3-dichlorophenyl)(2-methyl-3-(pyridin-4-yl)-4,5-dihydro-2H-pyrazolo[3,4-c]pyridin-6(7H)-yl)methanone]"
,,< 5.00,99.5 % control,< 5.00,"Cn1nc2c(c1-c1cncnc1)CCN(C(=O)c1cccc(Cl)c1Cl)C2 [Example 329, (2,3-dichlorophenyl)(2-methyl-3-(pyrimidin-5-yl)-4,5-dihydro-2H-pyrazolo[3,4-c]pyridin-6(7H)-yl)methanone]"
33.8 % control,,< 5.00,,< 5.00,"O=C(c1cccc(Cl)c1Cl)N1CCc2c(n[nH]c2-c2cncnc2)C1 [Example 330, (2,3-dichlorophenyl)(3-(pyrimidin-5-yl)-4,5-dihydro-2H-pyrazolo[3,4-c]pyridin-6(7H)-yl)methanone]"
